In ChEMBL document CHEMBL1131773, “Synthesis and structure-activity relationships of new non-steroidal progesterone receptor ligands” (Bioorg Med Chem Lett, 1999):

The compounds below were run against T1, Progesterone receptor (Homo sapiens) (UniProt P06401) (assay: Relative Binding affinity(RBA) to human progesterone receptor(PR) compared to PF1092A; (RBA= IC50 of PF1092A/ IC50 of test compound at human PR)).
T1 sequence (whole entry): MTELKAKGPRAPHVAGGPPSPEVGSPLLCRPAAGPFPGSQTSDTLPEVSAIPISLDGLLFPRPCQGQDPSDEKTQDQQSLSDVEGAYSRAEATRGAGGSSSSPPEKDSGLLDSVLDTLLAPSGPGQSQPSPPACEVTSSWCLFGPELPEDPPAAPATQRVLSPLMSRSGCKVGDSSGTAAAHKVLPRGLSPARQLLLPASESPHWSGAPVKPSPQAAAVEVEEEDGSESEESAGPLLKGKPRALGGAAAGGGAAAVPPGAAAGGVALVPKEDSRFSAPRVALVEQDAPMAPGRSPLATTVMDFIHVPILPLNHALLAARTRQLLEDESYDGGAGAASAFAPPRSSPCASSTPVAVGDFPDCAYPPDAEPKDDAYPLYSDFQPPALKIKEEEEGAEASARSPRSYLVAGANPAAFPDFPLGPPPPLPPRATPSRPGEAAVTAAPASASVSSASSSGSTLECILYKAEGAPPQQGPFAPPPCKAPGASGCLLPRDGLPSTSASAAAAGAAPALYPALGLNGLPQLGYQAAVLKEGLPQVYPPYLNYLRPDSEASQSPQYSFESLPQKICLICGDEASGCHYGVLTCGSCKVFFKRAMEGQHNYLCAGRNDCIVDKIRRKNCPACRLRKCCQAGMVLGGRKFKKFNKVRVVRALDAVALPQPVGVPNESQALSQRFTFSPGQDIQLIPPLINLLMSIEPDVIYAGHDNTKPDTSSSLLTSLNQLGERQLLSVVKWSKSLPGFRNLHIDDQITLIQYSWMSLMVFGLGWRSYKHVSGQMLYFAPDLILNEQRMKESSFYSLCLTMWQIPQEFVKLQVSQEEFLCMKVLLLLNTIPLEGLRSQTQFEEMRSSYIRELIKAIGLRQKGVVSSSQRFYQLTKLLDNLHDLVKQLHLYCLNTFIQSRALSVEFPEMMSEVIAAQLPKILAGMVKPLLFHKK

relative binding affinity (RBA)	Structure (SMILES)
1.2	CC(=O)O[C@H]1CC=C2C=C3OC(=O)C=C3C[C@]2(C)[C@H]1C
0.08	CC(=O)O[C@H]1CC=C2C=C3OC(=O)C(C)=C3C[C@]2(C)C1
0.2	CCC1=C2C[C@@]3(C)C(=CC[C@H](OC(C)=O)[C@@H]3C)C=C2OC1=O
1	CC(=O)O[C@H]1[C@@H](O)C=C2C=C3OC(=O)C(C)=C3C[C@]2(C)[C@H]1C
1.6	CC(=O)O[C@H]1[C@H](C)C=C2C=C3OC(=O)C(C)=C3C[C@]2(C)[C@H]1C
0.7	CO[C@H]1[C@@H](OC(C)=O)CC=C2C=C3OC(=O)C(C)=C3C[C@@]21C
0.8	CC(=O)O[C@H]1CC=C2C=C3OC(=O)C(C)=C3C[C@]2(C)[C@H]1C
0.07	CC(=O)O[C@H]1CC=C2C(C)=C3OC(=O)C(C)=C3C[C@]2(C)[C@H]1C
0.8	CC(=O)O[C@H]1CC=C2C=C3OC(=O)C(C)=C3[C@H](C)[C@]2(C)[C@H]1C
